# Results from publication PMC12699035, “Exploring market-approved azoles as potential breast cancer therapeutics targeting the VEGFR-2 biotarget” (Scientific Reports, 2025).
# System: Solid Ehrlich Carcinoma (SEC)
# Experiment: In vivo anti-tumor activity in solid Ehrlich carcinoma (SEC)-bearing mice (tumor mass, volume, TIR%, hematology, histopathology)
# Protocol: All experimental protocols were approved by the Research Ethics Committee and Institutional Animal Care and Use Committee, Faculty of Science, Suez Canal University with the ethical code (SCU-Sci-REC439/2025), and all methods were carried out according to the European Union guidelines and in accordance with ARRIVE guidelines. All animals were anesthetized using a combination of Xylazine 10 mg/kg- Ketamine 100 mg/kg of body weight, respectively, prior sacrifice via cervical decapitation.
# In all graphs, treatments were administrated intraperitoneal (IP) with 6 mg/Kg B.Wt. for two weeks, day after day.
# SIT, FLU and TNZ were tested using the five dose sigmoidal curves to determine the IC50 values. They were tested for the VEGFR2 inhibition using VEGFR2 Kinase Inhibition Assay Kit Catalog # 40325 BPS Bioscience, San Diego, CA. […] At the end of these experiment, anti-tumor potentiality was recorded using tumor weight (mg), tumor volume (mm^3), and the tumor inhibition ratio (TIR%). Hematological parameters of Hemoglobin (Hb, g/dL), RBC’s count (10^6/μL), and WBC’s count (10^3/μL) were investigated, along with histopathological and immunohistochemical staining of the VEGR2 protein.
# Adult female Swiss albino mice purchased from Faculty of Pharmacy, Suez Canal University, Ismailia, Egypt, with an average body weight of (18-23) g was used. Mice were housed under constant conditions of 12 h light/dark cycle in a […], with free access to standard laboratory mice food and water. All procedures related to care and maintenance of the animals were performed according to the international guiding principles for animal research and approved by the Faculty of Pharmacy, Suez Canal University bioethics and animal ethics committee.
# Solid Ehrlich carcinoma (SEC) was got from the National Cancer Institute (Cairo University, Egypt). The tumor cell line proliferated in mice through serial intraperitoneal (I.P.) transplantation of a volume of 0.2 mL physiological saline containing 1×10^6 viable cells for 24 h. SEC cells were collected 7 days after I.P. implantation. The harvested cells were diluted with saline to obtain a concentration of 5×10^6 viable SEC cells/mL. A volume of 0.2 mL saline contains 1×10^6 SEC cells that were I.P. implanted into each normal mouse. SEC cells (1×10^6 tumor cells/mouse) were implanted subcutaneously into the right thigh of the hind limb.
# The experimental animals were randomly divided into four groups. Group 1 served as the normal saline control. Group 2 served as the SEC control (1×10^6 cells/mouse). Group 3 served as the ITR-treated group (6 mg/kg B.Wt., I.P.). […] Body weight and survival were recorded daily until the 24th day in both treated and control groups. At the end of the experiment, anesthetized animals were then sacrificed for evaluation of the antitumor activity and histopathological examination.
# It includes tumor volume, weight, and tumor inhibition ratio (TIR%). Time interval measurements of tumor volume using a digital Vernier caliper (Tricle Brand, Shanghai, China). Measure tumor length and width using a clipper and then calculate tumor volume using formulations V = (L x W x W)/2, where V is tumor volume, W is tumor width, L is tumor length. While TIR% was calculated according to the following equation Tumor volume Control-Tumor volume (treated)Tumor volume (control)x 100.
# Specimens of liver-sacrificed mice were fixed in 10% saline formalin. The fixed liver specimens were Dehydrated in ascending series of ethyl alcohol and embedded in paraffin.
smiles,measurement,setting,value
"CCC(C)n1ncn(-c2ccc(N3CCN(c4ccc(OCC5COC(Cn6cncn6)(c6ccc(Cl)cc6Cl)O5)cc4)CC3)cc2)c1=O (stereo not shown) [Itraconazole, itraconazole]",solid tumor mass,"6 mg/Kg B.Wt. IP, two weeks, day after day, SEC control 469 mg",237 mg
same,tumor volume,"6 mg/Kg B.Wt. IP, two weeks, day after day, SEC control 420 mm^3",221 mm^3
same,Tumor inhibition ratio (TIR%),"6 mg/Kg B.Wt. IP, two weeks, day after day, TIR% = C − T/C × 100",47.4%
same,WBC's count,"6 mg/Kg IP, normal 5, SEC control 9.2",6.7 10^3/µL
same,RBC's count,"6 mg/Kg IP, normal 6.9, SEC control 3.1",5.1 10^6/µL
same,Hemoglobin level,"6 mg/Kg IP, normal 11.6, SEC control 4.6",6.8 g/dL
same,Tumor cell density (histopathology of SEC mass),"isolated tumor mass, SEC control 2.2 cm^2",1.2 cm^2
